This note sets out measurements from ChEMBL document CHEMBL1140414, “Molecular modeling, synthesis, and preliminary biological evaluation of glutathione-S-transferase inhibitors as potential therapeutic agents” (J Med Chem, 2005).

Structures are written as SMILES.

Test [1] deals with T1, Glutathione S-transferase P (Homo sapiens, UniProt P09211). As to the kind of experiment: Inhibition constant against glutathione S-transferase pi using GSH (0.1-3mM), 1 mM 1-chloro-2,4-dinitrobenzene.
The target of test [2] is T1, Glutathione S-transferase P. In words: Inhibition against glutathione S-transferase pi using GSH (0.1-3mM), 1 mM 1-chloro-2,4-dinitrobenzene.

T1 sequence (P09211 whole entry): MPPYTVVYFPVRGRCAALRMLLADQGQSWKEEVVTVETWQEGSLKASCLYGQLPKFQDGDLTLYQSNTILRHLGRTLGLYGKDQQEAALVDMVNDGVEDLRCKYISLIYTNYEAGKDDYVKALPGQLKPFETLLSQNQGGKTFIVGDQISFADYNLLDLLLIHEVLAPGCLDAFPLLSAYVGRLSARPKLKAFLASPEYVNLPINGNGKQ

The molecule `NC(CCC(=O)NC(CSC(C(=O)O)c1ccccc1)C(=O)NCC(=O)O)C(=O)O` (stereo not drawn) came in with a Ki in test [1] of 660 nM. The half-inhibitory concentration (IC50) in test [2] came to 5.5 µM.
In turn, `NC(CCC(=O)NC(CSC(CO)c1ccccc1)C(=O)NCC(=O)O)C(=O)O` (stereo not drawn) registered a Ki in test [1] of 1110 nM. In test [2], this molecule returned an IC50 of 9 µM.
Regarding `NC(CCC(=O)NC(CSCC(O)c1ccccc1)C(=O)NCC(=O)O)C(=O)O` (stereo not drawn), affinity in test [1] was put at a Ki of 490 nM. In addition, in test [2], the IC50 was 4.7 µM.
In test [1], `NC(CCC(=O)NC(CSCCO)C(=O)NCC(=O)O)C(=O)O` (stereo not drawn) registered a Ki of 187000 nM. Further, the half-maximal inhibitory concentration (IC50) in test [2] is 280 µM.

Broadly, the Ki is a measure of affinity in units of concentration, obtained from inhibition or displacement. High values mean a looser hold on the target, low ones a stronger hold on the target. In general, IC50 refers to the concentration that gives 50% inhibition.
